The subject of one data set is Pseudomonas aeruginosa. The data set is described as follows: Antibacterial activity against Pseudomonas aeruginosa. The data set is classed as functional, organism-based.
The subject of a further data set is Acinetobacter baumannii. The data set is described as follows: Antibacterial activity against Acinetobacter baumannii. In kind it is functional, organism-based.
Another data set relates to Klebsiella pneumoniae. Kind of data set: Antibacterial activity against Klebsiella pneumoniae. In kind it is functional, organism-based.
Data set [1] relates to L5178Y. The data set is described as follows: Cytotoxicity against mouse L5178Y cells at 10 uM. The data set is classed as functional, cell-based.
The subject of data set [2] is L5178Y. Kind of data set: Cytotoxicity against mouse L5178Y cells at 10 ug/ml. In kind it is functional, cell-based.
Another data set has as its system Enterococcus faecium. The data set is described as follows: Antibacterial activity against Enterococcus faecium. In kind it is functional, organism-based.
The test system of the next data set is Staphylococcus aureus. The data set is described as follows: Antibacterial activity against Staphylococcus aureus ATCC 29213. The data set is classed as functional, organism-based.
The test system of data set [3] is Mycobacterium tuberculosis. The data set is described as follows: Antitubercular activity against Mycobacterium tuberculosis H37Rv. In kind it is functional, organism-based.
In data set [4] the test system is A2780S. Kind of data set: Cytotoxicity against human A2780S cells at 10 ug/ml. In kind it is functional, cell-based.
The subject of a further data set is Escherichia coli. Kind of data set: Antibacterial activity against Escherichia coli. In kind it is functional, organism-based.
Data set [5] concerns L5178Y. The data set is described as follows: Cytotoxicity against mouse L5178Y cells at 100 uM. In kind it is functional, cell-based.
In data set [6] the test system is A2780S. The data set is described as follows: Cytotoxicity against human A2780S cells at 100 uM. In kind it is functional, cell-based.
Another data set concerns Klebsiella aerogenes. Kind of data set: Antibacterial activity against Enterobacter aerogenes. The data set is classed as functional, organism-based.
Data set [7] relates to A2780S. Kind of data set: Cytotoxicity against human A2780S cells at 10 uM. The data set is classed as functional, cell-based.
A short description of data set [8]: Stability of the compound by HPLC analysis. In kind it is physicochemical.

Each structure is given as a SMILES string. Activity calls are given as the source filed them. The calls are words filed in the database; no cut-off is given here.

In the case of `Cc1cc(O)cc(O)c1-c1cc(=O)c2c(O)cc(O)cc2o1`, the outcome in the data set with Pseudomonas aeruginosa, in the data set on Acinetobacter baumannii, in the data set on Klebsiella pneumoniae, in the data set with L5178Y [1], in the data set with L5178Y [2] and in the data set with Enterococcus faecium was inactive. The result (in the data set with Staphylococcus aureus; in [3]; in the data set on A2780S [4]; with Escherichia coli; in the data set with L5178Y [5]; in the data set with A2780S [6]) was inactive. The result in the data set with Klebsiella aerogenes and with A2780S [7] was inactive.

In the case of `COc1cc(O)c2c(c1)C(C1c3cc(C)cc(O)c3C(=O)c3c(O)cc(OC)cc31)c1cc(C)cc(O)c1C2=O` (stereo not given), the Stability entry in [8] is listed as “Unstable”.

Consider `COC(=O)c1cc(O)cc(OC)c1C(=O)c1c(O)cc(C)cc1O`, for which the result with Pseudomonas aeruginosa, in the data set with Acinetobacter baumannii, with Klebsiella pneumoniae, with L5178Y [1], with L5178Y [2] and in the data set with Enterococcus faecium was inactive. The result (with Staphylococcus aureus; in data set [3]; in the data set with A2780S [4]; in the data set with Escherichia coli; with L5178Y [5]; in the data set with A2780S [6]) was inactive. For the same molecule, the result in the data set on Klebsiella aerogenes and with A2780S [7] was inactive.

In the case of `COc1cc(OC)c2c(c1)[C@H]([C@H]1c3cc(C)cc(O)c3C(=O)c3c(OC)cc(O)cc31)c1cc(C)cc(O)c1C2=O`, the Stability result in data set [8] is “Unstable”.

Regarding `COc1cc(O)c2c(c1)[C@@H]([C@H]1c3cc(O)cc(O)c3C(=O)c3c1cc(C)c(C(=O)OC[C@@H](O)CO)c3O)c1cc(C)cc(O)c1C2=O`, in data set [8], the Stability result is on record as “Unstable”.

With `COC(=O)c1cc(OC)cc(OC)c1C(=O)c1c(O)cc(C)cc1O`, the result in the data set with Pseudomonas aeruginosa, with Acinetobacter baumannii, with Klebsiella pneumoniae, in the data set on L5178Y [1], in the data set with L5178Y [2] and in the data set with Enterococcus faecium was inactive. Also, the outcome (in the data set with Staphylococcus aureus; in data set [3]; in the data set on A2780S [4]; with Escherichia coli; with L5178Y [5]; with A2780S [6]) was inactive. Moreover, the outcome in the data set on Klebsiella aerogenes and in the data set with A2780S [7] was inactive.

In the case of `COc1cc(OC)c2c(c1)C(C1c3cc(O)cc(O)c3C(=O)c3c1cc(C)c(C(=O)OC[C@@H](O)CO)c3O)c1cc(C)cc(O)c1C2=O` (stereo not given in full), the Stability entry in [8] is listed as “Unstable”.

On to `COC(=O)c1cc(C)c(C(=O)OC[C@@H](O)CO)c2oc3cc(O)cc(O)c3c(=O)c12`, for which the outcome (in the data set on L5178Y [1]; in the data set with L5178Y [2]; in data set [3]; in the data set on L5178Y [5]) was inactive.

Take `COC(=O)c1cc(O)cc(O)c1C(=O)c1c(O)cc(C)cc1O`: the outcome with Pseudomonas aeruginosa, in the data set with Acinetobacter baumannii, with Klebsiella pneumoniae, in the data set with L5178Y [1], in the data set on L5178Y [2] and in the data set with Enterococcus faecium was inactive. In addition, the result (in the data set on Staphylococcus aureus; in data set [3]; with A2780S [4]; with Escherichia coli; in the data set with L5178Y [5]; in the data set on A2780S [6]) was inactive. The outcome in the data set with Klebsiella aerogenes and in the data set on A2780S [7] was inactive.

With `COc1cc(OC)c2c(c1)C(=O)c1cc(C)cc(O)c1C2=O`, the outcome (in the data set with L5178Y [1]; with L5178Y [2]; in data set [3]; in the data set on A2780S [4]; in the data set with L5178Y [5]; in the data set on A2780S [6]) was inactive. Further, the result in the data set on A2780S [7] was inactive.

For `COc1cc(C(=O)O)c2c(=O)c3c(O)cc(C)cc3oc2c1`, the result with Pseudomonas aeruginosa, with Acinetobacter baumannii, with Klebsiella pneumoniae, in the data set with L5178Y [1], in the data set with L5178Y [2] and with Enterococcus faecium was inactive. Besides, the result (with Staphylococcus aureus; in [3]; in the data set with A2780S [4]; in the data set with Escherichia coli; in the data set on L5178Y [5]; with A2780S [6]) was inactive. Moreover, the outcome in the data set with Klebsiella aerogenes and with A2780S [7] was inactive.

As to `Cc1cc(O)c2c(=O)c3c(C(=O)O)cc(O)cc3oc2c1`, the outcome in the data set on Pseudomonas aeruginosa, with Acinetobacter baumannii, in the data set on Klebsiella pneumoniae, with L5178Y [1], in the data set on L5178Y [2] and in the data set with Enterococcus faecium was inactive. The outcome (in the data set with Staphylococcus aureus; in data set [3]; with A2780S [4]; in the data set on Escherichia coli; with L5178Y [5]; in the data set on A2780S [6]) was inactive. The result in the data set with Klebsiella aerogenes and in the data set on A2780S [7] was inactive.

As for `Cc1cc(=O)c2c(C)cc3cc(O)cc(O)c3c2o1`, the result in the data set on Pseudomonas aeruginosa, in the data set on Acinetobacter baumannii, in the data set with Klebsiella pneumoniae, with L5178Y [1], in the data set on L5178Y [2] and in the data set with Enterococcus faecium was inactive. Further, the result (with Staphylococcus aureus; in [3]; in the data set on A2780S [4]; in the data set with Escherichia coli; with L5178Y [5]; with A2780S [6]) was inactive. The outcome in the data set on Klebsiella aerogenes and in the data set with A2780S [7] was inactive.

Turning to `COC(=O)c1cc(C)c(C(=O)OC[C@@H](O)CO)c(OC)c1C(=O)c1c(C)cc(O)cc1O`, the outcome (in the data set with L5178Y [1]; in the data set on L5178Y [2]; in data set [3]; in the data set on L5178Y [5]) was inactive.

For `Cc1cc(O)c2c(c1)C(=O)c1cc(O)cc(O)c1C2=O`, the result in the data set on Pseudomonas aeruginosa, with Acinetobacter baumannii, in the data set on Klebsiella pneumoniae, in the data set on L5178Y [1], in the data set on L5178Y [2] and in the data set on Enterococcus faecium was inactive. Moreover, the result (in the data set on Staphylococcus aureus; in [3]; with A2780S [4]; with Escherichia coli; with L5178Y [5]; in the data set with A2780S [6]) was inactive. Also, the outcome in the data set with Klebsiella aerogenes and in the data set with A2780S [7] was inactive.

As to `Cc1cc2c(c(O)c1C(=O)OC[C@@H](O)CO)C(=O)c1c(O)cc(O)cc1C2=O`, the result in the data set on Pseudomonas aeruginosa, in the data set with Acinetobacter baumannii, in the data set on Klebsiella pneumoniae, in the data set on L5178Y [1], with L5178Y [2] and in the data set with Enterococcus faecium was inactive. Moreover, the result (with Staphylococcus aureus; in data set [3]; in the data set on A2780S [4]; with Escherichia coli; in the data set on L5178Y [5]; in the data set on A2780S [6]) was inactive. Moreover, the result with Klebsiella aerogenes and with A2780S [7] was inactive.

Regarding `COc1cc(O)c2c(c1)[C@@H]([C@@H]1c3cc(O)cc(O)c3C(=O)c3c1cc(C)c(C(=O)OC[C@@H](O)CO)c3O)c1cc(C)cc(O)c1C2=O`, the Stability entry in data set [8] is “Unstable”.

For `COc1cc(O)cc2c1C(=O)c1c(O)cc(C)cc1C2=O`, the outcome in the data set with Pseudomonas aeruginosa, with Acinetobacter baumannii, in the data set with Klebsiella pneumoniae, in the data set with L5178Y [1], with L5178Y [2] and with Enterococcus faecium was inactive. In addition, the result (with Staphylococcus aureus; in data set [3]; in the data set with A2780S [4]; in the data set with Escherichia coli; with L5178Y [5]; in the data set with A2780S [6]) was inactive. Also, the outcome in the data set with Klebsiella aerogenes and in the data set on A2780S [7] was inactive.

For `COc1cc(OC)c2c(c1)C(C1c3cc(C)cc(O)c3C(=O)c3c(OC)cc(OC)cc31)c1cc(C)cc(O)c1C2=O` (stereo not given), the Stability result in [8] was “Unstable”.

In the case of `Cc1cc2cc(O)cc(O)c2c2oc(=O)cc(O)c12`, the outcome in the data set on Pseudomonas aeruginosa, in the data set on Acinetobacter baumannii, with Klebsiella pneumoniae, in the data set on L5178Y [1], in the data set with L5178Y [2] and with Enterococcus faecium was inactive. Besides, the result (with Staphylococcus aureus; in data set [3]; in the data set with A2780S [4]; in the data set on Escherichia coli; in the data set on L5178Y [5]; with A2780S [6]) was inactive. Also, the result in the data set with Klebsiella aerogenes and in the data set with A2780S [7] was inactive.

These data come from ChEMBL document CHEMBL4396952, “Xanthone, benzophenone and bianthrone derivatives from the hypersaline lake-derived fungus Aspergillus wentii” (Bioorg Med Chem, 2019).
